Reference: PubChem BioAssay AID743298 (Broad Institute, 2014)
Values joined by “and” are separate entries in the source; they are usually repeats but may differ in a detail not shown here. Equal entries are not always repeated. Active and inactive are the calls of the source.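 Rule for the calls: active = fitted AC50 at or below twice the top valid dose for that sample, signal falling; inconclusive = flat curve at 30 to 70 percent inhibition, or bad fit; inactive = the rest.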

test system: not listed separately; experiment: cell lysis of Cryptococcus neoformans, alamar blue – dry powder, set 3, mechanism study for C. neoformans antifungal project, dose response (AID 743298); details: C. neoformans growth, alamar blue, 24 h; at 35 µM (top of the series)

SMILES	activity change, negative = inhibition
Cc1ccc(OCCn2c(=S)[nH]c3ccccc32)c(C)c1	12.9% (inactive)
c1ccc(OCCn2cnc3ccccc32)cc1	30.3% (inactive)
Cc1ccc(C(C)C)c(OCCn2c(CO)nc3ccccc32)c1	8.72% (inactive)
Cc1ccc(C)c(OCCn2c(=S)[nH]c3ccccc32)c1	26.6% (inactive)
Cc1ccc(C(C)C)c(OCCn2c(=S)[nH]c3c(F)cccc32)c1	16% (inactive)
CSc1nc2ccccc2n1CCOc1cc(C)ccc1C(C)C	-25.9% (inactive)
Cc1cccc(OCCn2c(=S)[nH]c3cc(C(F)(F)F)ccc32)c1	19% (inactive)
Cc1ccc(C(C)C)c(OCCn2c(=S)[nH]c3c(Cl)cccc32)c1	-22.6% (inactive)
S=c1[nH]c2cc(Cl)ccc2n1CCOc1ccccc1	39.6% (inactive)
Cc1ccc(C(C)C)c(OCCn2c(=S)[nH]c3ccc(F)cc32)c1	44.9% (inactive)
Cc1ccc(C(C)C)c(OCCn2c(=S)[nH]c3cc(F)ccc32)c1	55% (inactive)
Cc1ccc(C(C)C)c(OCCn2c(=S)[nH]c3cccc(C)c32)c1	35.3% (inactive)
COCc1nc2ccccc2n1CCOc1ccc(C(C)(C)C)cc1	5.49% (inactive)
Cc1ccc(C(C)C)c(OCCn2c(=S)[nH]c3ccc(Cl)cc32)c1	30.7% (inactive)
Cc1ccc(C(C)C)c(OCCn2c(=S)[nH]c3c(C)cccc32)c1	59.5% (inactive)
Cc1cccc(OCCn2c(=S)[nH]c3ccc(C(F)(F)F)cc32)c1	39.4% (inactive)
COc1ccccc1OCCn1c(=S)[nH]c2ccccc21	-19.4% (inactive)
CC(C)c1ccccc1NCCn1c(=S)[nH]c2ccccc21	34.7% (inactive)
Cc1cccc(OCCn2c(=S)[nH]c3c(F)cccc32)c1	-5.91% (inactive) and -16.2% (inactive)
Cc1cccc(OCCn2c(=S)[nH]c3ccccc32)c1C	51.8% (inactive)

test system: C. neoformans growth, alamar blue, 24 h; experiment: as above; details: not given

SMILES	AC50
S=c1[nH]c2ccccc2n1CCOc1ccccc1	24.4 µM
CC(C)c1ccc(OCCn2c(=S)[nH]c3ccccc32)cc1	5.77 µM
Fc1ccc2[nH]c(=S)n(CCOc3ccccc3)c2c1	25.2 µM
Fc1cccc2c1[nH]c(=S)n2CCOc1ccccc1	20 µM and 22.2 µM
Cc1cccc2[nH]c(=S)n(CCOc3ccccc3)c12	15.1 µM
S=c1[nH]c2ccccc2n1CCOc1ccc(Cl)cc1	6.01 µM
Cc1ccc(OCCn2c(SCCO)nc3ccccc32)c(C(C)C)c1	26 µM
Cc1ccc2c(c1)[nH]c(=S)n2CCOc1ccccc1	12.2 µM and 12.4 µM
CC(C)(C)c1ccccc1OCCn1c(=S)[nH]c2ccccc21	11.2 µM
Fc1ccc2c(c1)[nH]c(=S)n2CCOc1ccccc1	27.5 µM and 26.8 µM
Cc1ccc(OCCn2c(=S)[nH]c3ccccc32)cc1	5.63 µM
Fc1cccc(OCCn2c(=S)[nH]c3ccccc32)c1	25.6 µM
Cc1ccccc1OCCn1c(=S)[nH]c2ccccc21	> 70 µM (inactive)
Fc1ccccc1OCCn1c(=S)[nH]c2ccccc21	23 µM
COc1cccc(OCCn2c(=S)[nH]c3ccccc32)c1	28.8 µM
Cc1cccc(OCCn2c(=S)[nH]c3ccccc32)c1	21.1 µM

SMILES	AC50
Cc1ccc(OCCn2c(C)nc3ccccc32)cc1	21.9 µM
Cc1ccc(OCCn2c(=S)[nH]c3ccccc32)c(C(C)C)c1	12.3 µM and 10.4 µM
Cc1ccc(OCCn2cnc3ccccc32)cc1	12 µM
CC(C)(C)c1ccc(OCCn2cnc3ccccc32)cc1	17.5 µM
Cc1ccc(C(C)C)c(OCCn2c(=S)[nH]c3cccc(Cl)c32)c1	9.67 µM
CC(C)c1ccccc1OCCn1c(=S)[nH]c2ccccc21	20.1 µM
S=c1[nH]c2ccccc2n1CCOc1ccccc1Cl	34 µM
Cc1ccc(C(C)C)c(OCCn2c(=S)[nH]c3ccccc32)c1	9.65 µM and 9.22 µM
S=c1[nH]c2cccc(Cl)c2n1CCOc1ccccc1	6.34 µM and 6.02 µM
COc1ccc(OCCn2c(=S)[nH]c3ccccc32)cc1	30.3 µM
O=c1[nH]c2ccccc2n1CCOc1ccccc1	34 µM
CC(C)(C)c1ccc(OCCn2c(=S)[nH]c3ccccc32)cc1	7.11 µM
Cc1ccc(OCCn2cnc3ccccc32)c(C(C)C)c1	> 70 µM (inactive)
Cc1ccc(C(C)C)c(OCCn2c(=S)[nH]c3cccc(F)c32)c1	13.9 µM
CCOc1ccc(OCCn2c(=S)[nH]c3ccccc32)cc1	12.3 µM
Cc1cccc(OCCn2c(=S)[nH]c3cc(F)ccc32)c1	12.1 µM and 11.7 µM
